Assay results taken from patent publication US20250228861A1, “Cancer Treatments Using MTA-Cooperative PRMT5 Inhibitors” (AMGEN INC., priority 2022, published 2025).
Like-named read-outs stand apart in the source and are kept apart here.

Columns and labels:
MIAPACA2T2 cells [1] = test: Combination with gemcitabine, CellTiter-Glo viability, Fa and CalcuSyn CI; format: cell-based; settings: 6 days
Description: (§1) Cell viability was measured by the CellTiter-Glo Luminescence assay. Raw luminescent values were converted to fraction affected (Fa) with the following equation:
(§2) Synergy analysis was performed using the CalcuSyn software to determine CI scores based on the drug concentrations used and corresponding Fa values.

MIAPACA2T2 cells [2] = test: Combination with carboplatin, CellTiter-Glo viability, Fa and CalcuSyn CI; format: cell-based; settings: 6 days
Description: as §1, §2

A549 cells [3] = test: Combination with paclitaxel, CellTiter-Glo viability, Fa and CalcuSyn CI; format: cell-based; settings: 6 days;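 note: luminescent viability signal converted to fraction affected (Fa), and Fa with drug concentrations gives the CalcuSyn CI, where 0.9–1.1 is nearly additive and lower CI means stronger synergism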
Description: as §1, §2

A549 cells [4] = test: Combination with pemetrexed, CellTiter-Glo viability, Fa and CalcuSyn CI; settings: 6 days;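 note: fa derived from raw CellTiter-Glo luminescence, CI computed by CalcuSyn from drug concentrations and Fa, with values below 0.9 meaning synergism and 0.9–1.1 nearly additive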
Description: as §1, §2

H292 cells [5] = test: Combination with paclitaxel, CellTiter-Glo viability, Fa and CalcuSyn CI; format: cell-based; settings: 6 days;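 note: fa derived from raw luminescence, CI computed in CalcuSyn from drug concentrations and Fa, with CI under 0.9 indicating synergism and 0.9 to 1.1 nearly additive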
Description: as §1, §2

MIAPACA2T2 cells [6] = settings: 6 days
Description: as §1, §2

PSN1 cells = test: Combination with irinotecan, CellTiter-Glo viability, Fa and CalcuSyn CI; format: cell-based; settings: 6 days
Description: as §1, §2

MIAPACA2T2 cells [7] = test: as above; format: cell-based; settings: 6 days
Description: as §1, §2

H292 cells [8] = test: Combination with pemetrexed, CellTiter-Glo viability, Fa and CalcuSyn CI; settings: 6 days;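 note: fa derived from CellTiter-Glo luminescence signal, CI calculated in CalcuSyn from doses and Fa, with 0.9–1.1 nearly additive and smaller values indicating synergism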
Description: as §1, §2

H292 NSCLC xenografts = test: H292 NSCLC xenografts, combination with chemotherapy; format: in vivo, mice; settings: 100 mg/kg orally once daily + paclitaxel 20 mg/kg IP
[9] = Compound G 0.831 μM fixed + Gemcitabine 0.001322 μM
[10] = Compound G 0.831 μM fixed + Gemcitabine 0.001784 μM
[11] = Compound G 0.831 μM fixed + Gemcitabine 0.002409 μM
[12] = Compound G 0.831 μM fixed + Gemcitabine 0.003252 μM
[13] = Compound G 0.831 μM fixed + Gemcitabine 0.00439 μM
[14] = Compound G 0.831 μM fixed + Gemcitabine 0.005926 μM
[15] = Compound G 0.831 μM fixed + Gemcitabine 0.008 μM
[16] = Compound G 0.831 μM fixed + Carboplatin 2.47793 μM
[17] = Compound G 0.831 μM fixed + Carboplatin 3.3452 μM
[18] = Compound G 0.831 μM fixed + Carboplatin 4.51602 μM
[19] = Compound G 0.831 μM fixed + Carboplatin 6.09663 μM
[20] = Compound G 0.831 μM fixed + Carboplatin 8.23045 μM
[21] = Compound G 0.831 μM fixed + Carboplatin 11.1111 μM
[22] = Compound G 0.831 μM fixed + Carboplatin 15 μM
[23] = Compound G 0.437382 μM fixed + Paclitaxel 0.0005 μM
[24] = Compound G 0.437382 μM fixed + Paclitaxel 0.0007 μM
[25] = Compound G 0.437382 μM fixed + Paclitaxel 0.0009 μM
[26] = Compound G 0.437382 μM fixed + Paclitaxel 0.0011 μM
[27] = Compound G 0.437382 μM fixed + Paclitaxel 0.0015 μM
[28] = Compound G 0.437382 μM fixed + Paclitaxel 0.0019 μM
[29] = Compound G 0.437382 μM fixed + Paclitaxel 0.0025 μM
[30] = Compound G 0.437382 μM fixed + Pemetrexed 0.082858 μM
[31] = Compound G 0.437382 μM fixed + Pemetrexed 0.140859 μM
[32] = Compound G 0.437382 μM fixed + Pemetrexed 0.239461 μM
[33] = Compound G 0.437382 μM fixed + Pemetrexed 0.407083 μM
[34] = Compound G 0.437382 μM fixed + Pemetrexed 0.692042 μM
[35] = Compound G 0.437382 μM fixed + Pemetrexed 1.17647 μM
[36] = Compound G 0.437382 μM fixed + Pemetrexed 2 μM
[37] = Compound G 0.83102 μM fixed + 5-FU 0.664052 μM
[38] = Compound G 0.83102 μM fixed + 5-FU 0.929672 μM
[39] = Compound G 0.83102 μM fixed + 5-FU 1.30154 μM
[40] = Compound G 0.83102 μM fixed + 5-FU 1.82216 μM
[41] = Compound G 0.83102 μM fixed + 5-FU 2.55102 μM
[42] = Compound G 0.83102 μM fixed + 5-FU 3.57143 μM
[43] = Compound G 0.83102 μM fixed + 5-FU 5 μM
[44] = Compound G 0.0213 μM fixed + Irinotecan 0.035117 μM
[45] = Compound G 0.0213 μM fixed + Irinotecan 0.052675 μM
[46] = Compound G 0.0213 μM fixed + Irinotecan 0.079012 μM
[47] = Compound G 0.0213 μM fixed + Irinotecan 0.118519 μM
[48] = Compound G 0.0213 μM fixed + Irinotecan 0.177778 μM
[49] = Compound G 0.0213 μM fixed + Irinotecan 0.266667 μM
[50] = Compound G 0.0213 μM fixed + Irinotecan 0.4 μM
[51] = Compound G 0.83102 μM fixed + Irinotecan 0.131072 μM
[52] = Compound G 0.83102 μM fixed + Irinotecan 0.16384 μM
[53] = Compound G 0.83102 μM fixed + Irinotecan 0.2048 μM
[54] = Compound G 0.83102 μM fixed + Irinotecan 0.256 μM
[55] = Compound G 0.83102 μM fixed + Irinotecan 0.4 μM
[56] = Compound G 0.83102 μM fixed + Irinotecan 0.5 μM
[57] = Compound G 0.83102 μM fixed + Irinotecan […]

Nc1nc2cnc(C(=O)N3CCOC[C@@H]3c3ccc(C(F)(F)F)cc3)cc2c2c1COC2 [Compound G]
Combination Fa (MIAPACA2T2 cells [1]; [9]): 0.599
Computed CI value (MIAPACA2T2 cells [1]; [9]): 1.117
Combination Fa (MIAPACA2T2 cells [1]; [10]): 0.66
Computed CI value (MIAPACA2T2 cells [1]; [10]): 1.094
Combination Fa (MIAPACA2T2 cells [1]; [11]): 0.787
Computed CI value (MIAPACA2T2 cells [1]; [11]): 0.962
Combination Fa (MIAPACA2T2 cells [1]; [12]): 0.93
Computed CI value (MIAPACA2T2 cells [1]; [12]): 0.793
Combination Fa (MIAPACA2T2 cells [1]; [13]): 0.969
Computed CI value (MIAPACA2T2 cells [1]; [13]): 0.825
Combination Fa (MIAPACA2T2 cells [1]; [14]): 0.989
Computed CI value (MIAPACA2T2 cells [1]; [14]): 0.826
Combination Fa (MIAPACA2T2 cells [1]; [15]): 0.993
Computed CI value (MIAPACA2T2 cells [1]; [15]): 0.981
Combination Fa (MIAPACA2T2 cells [2]; [16]): 0.711
Computed CI value (MIAPACA2T2 cells [2]; [16]): 0.599
Combination Fa (MIAPACA2T2 cells [2]; [17]): 0.766
Computed CI value (MIAPACA2T2 cells [2]; [17]): 0.521
Combination Fa (MIAPACA2T2 cells [2]; [18]): 0.832
Computed CI value (MIAPACA2T2 cells [2]; [18]): 0.437
Combination Fa (MIAPACA2T2 cells [2]; [19]): 0.881
Computed CI value (MIAPACA2T2 cells [2]; [19]): 0.402
Combination Fa (MIAPACA2T2 cells [2]; [20]): 0.939
Computed CI value (MIAPACA2T2 cells [2]; [20]): 0.322
Combination Fa (MIAPACA2T2 cells [2]; [21]): 0.963
Computed CI value (MIAPACA2T2 cells [2]; [21]): 0.313
Combination Fa (MIAPACA2T2 cells [2]; [22]): 0.966
Computed CI value (MIAPACA2T2 cells [2]; [22]): 0.396
Combination Fa (A549 cells [3]; [23]): 0.6362
Computed CI value (A549 cells [3]; [23]): 0.639
Combination Fa (A549 cells [3]; [24]): 0.6087
Computed CI value (A549 cells [3]; [24]): 0.863
Combination Fa (A549 cells [3]; [25]): 0.7048
Computed CI value (A549 cells [3]; [25]): 0.786
Combination Fa (A549 cells [3]; [26]): 0.7817
Computed CI value (A549 cells [3]; [26]): 0.77
Combination Fa (A549 cells [3]; [27]): 0.9048
Computed CI value (A549 cells [3]; [27]): 0.736
Combination Fa (A549 cells [3]; [28]): 0.95
Computed CI value (A549 cells [3]; [28]): 0.759
Combination Fa (A549 cells [3]; [29]): 0.9687
Computed CI value (A549 cells [3]; [29]): 0.869
Combination Fa (A549 cells [4]; [30]): 0.669
Computed CI value (A549 cells [4]; [30]): 0.846
Combination Fa (A549 cells [4]; [31]): 0.651
Computed CI value (A549 cells [4]; [31]): 1.064
Combination Fa (A549 cells [4]; [32]): 0.693
Computed CI value (A549 cells [4]; [32]): 0.882
Combination Fa (A549 cells [4]; [33]): 0.712
Computed CI value (A549 cells [4]; [33]): 0.922
Combination Fa (A549 cells [4]; [34]): 0.834
Computed CI value (A549 cells [4]; [34]): 0.363
Combination Fa (A549 cells [4]; [35]): 0.918
Computed CI value (A549 cells [4]; [35]): 0.132
Combination Fa (A549 cells [4]; [36]): 0.948
Computed CI value (A549 cells [4]; [36]): 0.087
Combination Fa (H292 cells [5]; [23]): 0.6656
Computed CI value (H292 cells [5]; [23]): 0.92
Combination Fa (H292 cells [5]; [24]): 0.7749
Computed CI value (H292 cells [5]; [24]): 0.728
Combination Fa (H292 cells [5]; [25]): 0.8617
Computed CI value (H292 cells [5]; [25]): 0.658
Combination Fa (H292 cells [5]; [26]): 0.8929
Computed CI value (H292 cells [5]; [26]): 0.704
Combination Fa (H292 cells [5]; [27]): 0.9417
Computed CI value (H292 cells [5]; [27]): 0.749
Combination Fa (H292 cells [5]; [28]): 0.957
Computed CI value (H292 cells [5]; [28]): 0.85
Combination Fa (H292 cells [5]; [29]): 0.974
Computed CI value (H292 cells [5]; [29]): 0.94
Combination Fa (MIAPACA2T2 cells [6]; [37]): 0.7114
Computed CI value (MIAPACA2T2 cells [6]; [37]): 0.445
Combination Fa (MIAPACA2T2 cells [6]; [38]): 0.7511
Computed CI value (MIAPACA2T2 cells [6]; [38]): 0.477
Combination Fa (MIAPACA2T2 cells [6]; [39]): 0.8099
Computed CI value (MIAPACA2T2 cells [6]; [39]): 0.482
Combination Fa (MIAPACA2T2 cells [6]; [40]): 0.85
Computed CI value (MIAPACA2T2 cells [6]; [40]): 0.529
Combination Fa (MIAPACA2T2 cells [6]; [41]): 0.8941
Computed CI value (MIAPACA2T2 cells [6]; [41]): 0.555
Combination Fa (MIAPACA2T2 cells [6]; [42]): 0.9193
Computed CI value (MIAPACA2T2 cells [6]; [42]): 0.632
Combination Fa (MIAPACA2T2 cells [6]; [43]): 0.9246
Computed CI value (MIAPACA2T2 cells [6]; [43]): 0.834
Combination Fa (PSN1 cells; [44]): 0.4007
Computed CI value (PSN1 cells; [44]): 0.981
Combination Fa (PSN1 cells; [45]): 0.3585
Computed CI value (PSN1 cells; [45]): 1.28
Combination Fa (PSN1 cells; [46]): 0.4649
Computed CI value (PSN1 cells; [46]): 1.168
Combination Fa (PSN1 cells; [47]): 0.6137
Computed CI value (PSN1 cells; [47]): 1.087
Combination Fa (PSN1 cells; [48]): 0.8505
Computed CI value (PSN1 cells; [48]): 0.852
Combination Fa (PSN1 cells; [49]): 0.9402
Computed CI value (PSN1 cells; [49]): 0.836
Combination Fa (PSN1 cells; [50]): 0.9731
Computed CI value (PSN1 cells; [50]): 0.916
Combination Fa (MIAPACA2T2 cells [7]; [51]): 0.718
Computed CI value (MIAPACA2T2 cells [7]; [51]): 0.691
Combination Fa (MIAPACA2T2 cells [7]; [52]): 0.7359
Computed CI value (MIAPACA2T2 cells [7]; [52]): 0.751
Combination Fa (MIAPACA2T2 cells [7]; [53]): 0.8028
Computed CI value (MIAPACA2T2 cells [7]; [53]): 0.72
Combination Fa (MIAPACA2T2 cells [7]; [54]): 0.8794
Computed CI value (MIAPACA2T2 cells [7]; [54]): 0.677
Combination Fa (MIAPACA2T2 cells [7]; [55]): 0.9677
Computed CI value (MIAPACA2T2 cells [7]; [55]): 0.655
Combination Fa (MIAPACA2T2 cells [7]; [56]): 0.9854
Computed CI value (MIAPACA2T2 cells [7]; [56]): 0.649
Combination Fa (MIAPACA2T2 cells [7]; [57]): 0.9132
Computed CI value (MIAPACA2T2 cells [7]; [57]): 0.729
Combination Fa (H292 cells [8]; [30]): 0.602
Computed CI value (H292 cells [8]; [30]): 1.359
Combination Fa (H292 cells [8]; [31]): 0.63
Computed CI value (H292 cells [8]; [31]): 1.184
Combination Fa (H292 cells [8]; [32]): 0.678
Computed CI value (H292 cells [8]; [32]): 0.914
Combination Fa (H292 cells [8]; [33]): 0.741
Computed CI value (H292 cells [8]; [33]): 0.64
Combination Fa (H292 cells [8]; [34]): 0.827
Computed CI value (H292 cells [8]; [34]): 0.342
Combination Fa (H292 cells [8]; [35]): 0.885
Computed CI value (H292 cells [8]; [35]): 0.216
Combination Fa (H292 cells [8]; [36]): 0.904
Computed CI value (H292 cells [8]; [36]): 0.235
anti-tumor activity of combination with paclitaxel (H292 NSCLC xenografts): significant anti-tumor activity versus either single agent alone
